Tests used:
[1] = system: σ expression in HCT116 and other CRC cell lines; test: Northern blot of σ expression following adriamycin treatment; format: cell-based, human; conditions: 0.2 ug/ml adriamycin
Procedure: (FIG. 1B) σ Expression following adriamycin treatment. Seven different CRC cell lines were treated with 0.2 ug/ml adriamycin (+) or vehicle (−) as indicated. RNA was prepared 24 hours following adriamycin treatment. Autoradiographs of Northern blots performed with σ, p21 and EF1 probes are shown. The p53 status of the respective cell lines is indicated on the top.
Northern blotting with a radiolabeled probe generated from σ cDNA was performed to confirm the SAGE results. […] Previous reports have shown that σ expression is limited to epithelial cells.
Total RNA was prepared by CsCl gradient ultracentrifugation of guanidine isothiocyanate-lysed cells as described. […].

HCT116 cells = format: cell-based, human

SMILES	induction of σ expression ([1]; HCT116 cells, RNA 24 hours after treatment)	σ expression in other colorectal cancer cell lines ([1]; several other CRC cell lines, 24 hours)	effect on polyploidization of Ad-σ infected cells (HCT116 cells)
COc1cccc2c1C(=O)c1c(O)c3c(c(O)c1C2=O)C[C@@](O)(C(=O)CO)C[C@@H]3O[C@H]1C[C@H](N)[C@H](O)[C@H](C)O1 [adriamycin]	similarly induce σ expression	express σ at relatively high levels	
CN[C@H]1CCc2cc(OC)c(OC)c(OC)c2-c2ccc(OC)c(=O)cc21 [colcemid]			did not prevent this polyploidization

From patent publication US6740523B2 (priority 1997, dated 2004)
